Consider three compounds from patent US20080089860A1, “Therapeutic compositions and methods useful in treating cancer” (priority 2006, published 2008).

The structures appear in SMILES notation.

One assay addresses T1, PRL-1 (Homo sapiens, UniProt Q93096).
T1 construct: made in house; host or cells: E. coli DH5a
In words: In vitro PTPase assay, recombinant PRL-1. The conditions noted are these: 0.1-100 μg/ml. It counts as biochemical. The source says:
(§1) Sodium stibogluconate, suramin, sodium orthovanadate and GST fusion protein of SHP-1 have been described previously (Pathak et al., J. Imumol. 167, 3391 (2001)). Meglumine antimonate was obtained from Aventis. cDNAs of human PRL-1, PRL-2 and PRL-3 coding region were derived by RT-PCR from H9 cells (Safai, et al., Lancet 1, 1438 (1984)) and inserted in frame into the pGEX vector. cDNA of PRL-1R86 was generated by recombinant DNA technique using PRL-1 cDNA as template following established procedures (Jiao, et al., Mol. Cell. Biol. 16, 6985 (1996)). […]
(§2) In vitro PTPase assays were used to determine the effects of compounds on recombinant PTPases, following established procedures using a synthetic phosphotyrosine peptide or DiFMUP as the substrate (Pathak et al., J. Imumol. 167, 3391 (2001)). […] PTPase activity of individual reactions was measured by adding 100 µL of malachite green solution (UBI) and then quantifying the amounts of free phosphate cleaved by the PTPase from the peptide substrate by spectrometry (OD660 nm). […] Relative PTPase activities were calculated based on the formula: (PTPase activity in the presence of an inhibitory compound/PTPase activity in the absence of the compound)× 100%. […]

For a further assay, the system named is GSTm8. In words: In vitro PTPase assay, GSTm8. Format: biochemical. Conditions: 3-4 μg/ml or 10-100 μg/ml. From the text: (§3) In vitro PTPase assays were used to determine the effects of levamisole (Sigma), pentamidine (American Pharmaceutical Partners, Inc.), and ketoconazole (Sigma) on recombinant PTPases, following established procedures (Pathak et al., J. Imumol. 167, 3391 (2001); Pathak et al., Leukemia 16, 2285 (2002), Yi et al., J. Immunol. 169, 5978 (2002)) using a synthetic phosphotyrosine peptide or DiFMUP as the substrate as detailed above in section I.A.2.

The target in a further assay is T2, PRL-2 (Homo sapiens, UniProt Q12974).
T2 construct: made in house; host or cells: E. coli DH5a
The assay is described as follows: In vitro PTPase assay, recombinant PRL-2. It counts as biochemical.
Excerpt: as §1, §2

For a further assay, the system named is DU145R cells. The assay is described as follows: DU145R cell growth, MTT assay. It counts as cell-based, human. The conditions noted are these: day 6 culture. How it is done: DU145 cells were cultured in the presence of sodium stibogluconate (100 µg/ml) in 48 well plates for 3 weeks. Cells from a well containing a single colony were transferred to flasks, cultured in sodium stibogluconate-free medium for 3 weeks and used as DU145R cells for further characterization. Growth of DU145R cells in the absence or presence of sodium stibogluconate in day 6 culture was determined by MTT assays. cDNAs of the coding region of PRLs were derived by RT-PCR from DU145 and DU145R cells and sequenced using primers described below.

For the next assay, the target named is T3, PTP1B (Homo sapiens, UniProt P18031).
T3 construct: purchased Upstate Biotechnology Inc. (Lake Placid, N.Y.)
In words: In vitro PTPase assay, GST/PTP1B. It counts as biochemical. The conditions noted are these: 0.1 to 1 μg/ml. The procedure: In vitro PTPase activities were measured using the commercial protein tyrosine phosphatase assay kit (Upstate Biotechnology, Inc. (“UBI”)) following established procedure known to one of skill in the art. This assay measures the in vitro dephosphorylation of a synthetic phosphotyrosine peptide of the sequence Arg-Arg-Leu-Ile-Glu-Asp-Ala-Gle-T- -yr-Ala-Ala-Arg-Gly, wherein the tyrosine is phosphorylated (SEQ ID NO: 3). Briefly, 0.01 µg of GST/PTPase fusion proteins was incubated in 50 µl of Tris buffer (10 mM Tris, pH 7.4) containing different concentrations of inhibitors or chemicals (0-1,000 µg/ml) at 22° C. for 10 minutes, followed by addition of 0.2 mM of the phosphotyrosine peptide and incubation at 22° C. for 18 hours. 100 µl of Malachite Green solution was added and incubated for 5 minutes, and the absorbance at 660 nm was measured after 5 minutes.
as §3

The test system of another assay is NB4 cells. In words: NB4 differentiation (NBT reduction, CD11b). Format: cell-based, human. Conditions: 6 days with drug (10 or 100 μg/ml), washed, 6 days without. The procedure: Differentiation of AML cell lines was assessed by their ability to produce superoxide as measured by reduction of NBT to formazan and by analysis of expression of CD11b surface marker by flow cytometry. For NBT reduction, each cell suspension was mixed with an equal volume of solution containing 1 mg/ml of NBT (Sigma) and 2.5 µg/ml of TPA for 30 minutes at 37° C. After incubation, cells containing the purple formazan deposits and cells devoid of NBT-reducing activity (white cells) in each sample were determined by counting 200 cells under microscope. Data is expressed as a percentage based on the following ratio: purple cells/purple+white cells. For analysis of cell surface antigens, cells were exposed to phycoerythrin (PE)-conjugated murine anti-human CD11b (DAKO Corp., Carpinteria, Calif.). Analysis of fluorescence was performed on a FACScan flow cytometer (Beckton Dickinson, Mountain View, Calif.).

T1 sequence (Q93096 whole entry): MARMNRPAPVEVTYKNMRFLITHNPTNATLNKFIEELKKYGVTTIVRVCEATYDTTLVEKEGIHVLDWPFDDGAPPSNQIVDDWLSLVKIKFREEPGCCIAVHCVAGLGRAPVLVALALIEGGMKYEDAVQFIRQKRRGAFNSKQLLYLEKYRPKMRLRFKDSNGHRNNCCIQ
T2 sequence (Q12974 whole entry): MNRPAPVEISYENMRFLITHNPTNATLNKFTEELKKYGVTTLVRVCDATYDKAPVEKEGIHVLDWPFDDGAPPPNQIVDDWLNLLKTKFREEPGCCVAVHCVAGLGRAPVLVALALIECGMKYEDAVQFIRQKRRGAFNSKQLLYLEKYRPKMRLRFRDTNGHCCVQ
T3 sequence (P18031 whole entry, species assumed): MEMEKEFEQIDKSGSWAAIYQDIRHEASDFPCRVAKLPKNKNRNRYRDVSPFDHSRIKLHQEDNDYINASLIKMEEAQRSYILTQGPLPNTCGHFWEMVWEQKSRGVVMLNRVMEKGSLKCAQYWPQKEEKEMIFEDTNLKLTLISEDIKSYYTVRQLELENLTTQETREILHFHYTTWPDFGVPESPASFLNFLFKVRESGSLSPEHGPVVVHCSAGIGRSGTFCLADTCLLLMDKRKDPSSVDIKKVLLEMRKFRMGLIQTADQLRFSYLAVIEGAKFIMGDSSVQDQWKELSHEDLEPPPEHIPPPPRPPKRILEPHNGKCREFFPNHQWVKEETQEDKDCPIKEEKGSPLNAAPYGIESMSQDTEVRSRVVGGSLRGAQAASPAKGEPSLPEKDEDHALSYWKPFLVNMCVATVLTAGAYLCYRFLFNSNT

With `CC(=O)N1CCN(c2ccc(OCC3COC(Cn4ccnc4)(c4ccc(Cl)cc4Cl)O3)cc2)CC1` (stereo not drawn) [ketoconazole], the PRL-1 activity retained on PRL-1 is 60-70%. In addition, the “inhibitory activity against GSTm8” value with GSTm8 is “no obvious inhibitory activity”. At PRL-2, the “effectiveness against PRL-2” value is recorded as “not effective”.
The matching figures for `N=C(N)c1ccc(OCCCCCOc2ccc(C(=N)N)cc2)cc1` [pentamidine]: 70-80%, “no obvious inhibitory activity” and “not effective”.
`O.O.O.O.O.O.O.O.O.O=C([O-])[C@@H]1[O][Sb]2([O-])([O][Sb]34([OH])[O][C@H]([C@H](O)CO)[C@H]([O]3)[C@H](C(=O)[O-])[O]4)[O][C@H]([C@H](O)CO)[C@@H]1[O]2.[Na+].[Na+].[Na+]` [sodium stibogluconate]: the “growth of DU145R clone in comparison to parental DU145” value in the assay with DU145R cells was “growth resistance”. Moreover, at PTP1B, the “inhibition of PTP1B activity” value was “only modestly effective”. For the same compound, the “reversal of NB4 differentiation after drug removal” value with NB4 cells is recorded as “not reversed”.
